Measurements: US10772858B2, “Benzhydrol derivatives for the management of conditions related to hypoxia inducible factors” (GEORGIA STATE UNIVERSITY RESEARCH FOUNDATION, priority 2015, dated 2020)

System: LN229HRE-luc/lacZ cells (VEGF HRE, HIF-1 target)
Assay: Inhibition of hypoxia-inducible gene expression driven by HRE-reporter construct (firefly luciferase) in glioma cells
Type: cell-based
Settings: Homo sapiens, Glioma cell; firefly luciferase activity in LN229HRE-luc/LacZ cells, 1 hour pretreatment under normoxia, then hypoxia (1% O2); from dose-response curves
Description: Inhibition of Hypoxia-Inducible Gene Expression Driven by Exogenous HRE-Reporter Constructs in Glioma Cells
LN229HRE-luc/lacZ cells were generated by stably transfecting human LN229 glioma cells with a bidirectional reporter construct (pBIGL-V6R) in which the firefly luciferase and LacZ reporter genes are under the control of 6 head to tail tandem copies of the VEGF HRE (hypoxia-responsive element—endogenous HIF-1 target gene) in rightward orientation (clone LN229V6R#18; Hygro selection […]) as reported in Yin et al. Clinical Cancer Research, 2012, 1-11.
Cells were pretreated with different doses of test compounds or 1% DMSO (final concentration in media) vehicle control for 1 hour under normoxia (21% O2); then incubation continued under normoxia or hypoxia (1% O2) using a hypoxia incubator (Thermo Forma model 3130). Firefly luciferase activities in lysates of LN229HRE-luc/LacZ cells were measured with a Dual-Luciferase Reporter Assay System (Promega) in a 20/20 n Luminometer (Promega). The IC50 (μM) value for each individual compound was established from the dose-response curves.

| IC50 | Compound |
| --- | --- |
| 1 µM | COc1ccc(C(O)c2ccc(CBr)cc2)cc1OC (centres unmarked) [21c] |
| 5 µM | CCCOCc1cccc(C(O)c2ccc(OC)cc2OC)c1 (centres unmarked) [6i] |
| > 5 µM | CCCOCc1ccc(C(O)c2ccc(OC)c(OCc3ccccc3)c2)cc1 (centres unmarked) [3p] |
| 0.27 µM | COc1ccc(C(O)c2ccc(OCCC3CCN(C(=O)OC(C)(C)C)CC3)cc2C)cc1OC (centres unmarked) [35e, Tert-butyl 4-(2-(4-((3,4-dimethoxyphenyl)(hydroxy)methyl)-3-methylphenoxy)ethyl)piperidine-1-carboxylate] |
| > 5 µM | CCCCOCc1cccc(C(O)c2cccc(OCc3ccccc3)c2)c1 (centres unmarked) [6m] |
| > 5 µM | COc1ccc(C(O)c2ccc3sc(C)cc3c2)c(OC)c1 (centres unmarked) [29f] |
| > 5 µM | COc1ccc(C(O)c2ccc(CO[C@H]3CCOC3)cn2)cc1OC (some centres unmarked) [3d] |
| 1 µM | COc1ccc(C(O)c2cccc(COc3ccccc3)c2)cc1OC (centres unmarked) [6a] |
| > 5 µM | COc1ccc(C(O)c2ccc(N3CCN(C)CC3)cc2)cc1OC (centres unmarked) [24d] |
| 2.98 µM | CCCCOCc1cccc(C(O)c2ccc(OC)c(OCc3ccccc3)c2)c1 (centres unmarked) [6l] |
| > 5 µM | CCCCOCc1cccc(C(O)c2ccc(OC)cc2)c1 (centres unmarked) [6g] |
| 1.8 µM | CCCCCCOc1ccc2cc(C(O)c3ccc(OC)c(OC)c3)ccc2c1 (centres unmarked) [32a] |
| > 5 µM | CCCOCc1ccc(C(O)c2ccc(OCOC)cc2)cc1 (centres unmarked) [3r] |
| > 5 µM | COc1ccc(C(O)c2ccc3c(c2)OCCN3C)cc1OC (centres unmarked) [29b] |
| 0.3 µM | CCCOCc1ccc(C(O)c2ccc(OC)c(OC)c2)cc1 (centres unmarked) [3m] |
| 0.33 µM | COc1ccc(C(O)c2ccc(OCCC3CCN(C(=O)OC(C)(C)C)CC3)cc2)cc1OC (centres unmarked) [14c] |
| 2.3 µM | COc1ccc(C(O)c2ccc3c(n2)CCC(C)(C)O3)cc1OC (centres unmarked) [27d] |
| > 5 µM | COc1cccc(C(O)c2ccc3c(c2)C=CC(C)(C)O3)c1 (centres unmarked) [26b] |
| > 5 µM | COc1ccc(C(O)c2ccc3c(c2)CCO3)cc1OC (centres unmarked) [29a] |
| > 5 µM | CCCOCc1ccc(C(O)c2ccc(OCc3ccccc3)c(OCC)c2)cc1 (centres unmarked) [3w] |
| > 5 µM | COc1ccc(C(O)c2ccc(COC(C)C)cc2)cc1OC (centres unmarked) [3n] |
| > 5 µM | COc1ccc(C(=O)c2ccc(N3CCOCC3)cc2)cc1OC [36d] |

| IC50 | Compound |
| --- | --- |
| 3.4 µM | COc1ccc(C(O)c2ccc(CO[C@@H]3CCOC3)cc2)cc1OC (some centres unmarked) [3b] |
| 4.2 µM | COc1ccc(C(O)c2ccc(OC3CCOC3)cc2OC)cc1OC (centres unmarked) [35a] |
| > 5 µM | COc1ccc(C(O)c2ccc(COc3cccnc3)cn2)cc1OC (centres unmarked) [3e] |
| > 5 µM | CCCOCc1ccc(C(O)c2ccc(OC)c(OCOC)c2)cc1 (centres unmarked) [3u] |
| > 5 µM | COc1ccc(C(=O)c2ccc3c(n2)C=CC(C)(C)O3)cc1OC [36h] |
| > 5 µM | C=CCOc1ccc(C(O)c2ccc(OC)c(OC)c2)cc1 (centres unmarked) [14a] |
| 2.95 µM | CCCOc1ccc2cc(C(O)c3ccc(OC)c(OC)c3)ccc2c1 (centres unmarked) [32b] |
| > 5 µM | COc1ccc(OC)c(C(O)c2ccc(OC)c(OC)c2)c1 (centres unmarked) [24c] |
| 0.3 µM | COc1ccc(C(O)c2ccc(CO[C@H]3CCOC3)cc2)cc1OC (stereo partly drawn) [3a, (3,4-Dimethoxyphenyl)(4-((((S)-tetrahydrofuran-3-yl)oxy)methyl)phenyl)methanol] |
| 0.62 µM | CCCCOCc1cccc(C(O)c2ccc(OCc3ccccc3)c(OCC)c2)c1 (centres unmarked) [6p] |
| > 5 µM | COc1ccc(C(=O)c2cccc(COC3CCN(C(=O)OC(C)(C)C)CC3)c2)cc1OC [36f] |
| > 5 µM | COc1ccc(C(=O)c2ccc3c(c2)C=CC(C)(C)O3)cc1OC [36e] |
| > 5 µM | COc1ccc(C(O)c2ccc(OC(C)C)cn2)c(OC)c1 (centres unmarked) [15d] |
| > 5 µM | CCCCOCc1cccc(C(O)c2cccc(OCOC)c2)c1 (centres unmarked) [9c] |
| 0.89 µM | COc1ccc(C(O)c2ccc(COC3CCN(C(=O)OC(C)(C)C)CC3)cc2)cc1OC (centres unmarked) [3o] |
| > 5 µM | CCOCc1ccc(C(O)c2ccc(OC)c(OC)c2)cc1 (centres unmarked) [3k] |
| 1.2 µM | COc1ccc(C(O)c2ccc3ccccc3c2)cc1OC (centres unmarked) [29c] |
| 2.2 µM | COc1ccc(C(O)c2ccccc2)cc1OC (centres unmarked) [24a] |
| > 5 µM | COc1ccc([C@H](O)c2ccc(COC3CCOC3)cc2)cc1OC (some centres unmarked) [3f] |
| 0.63 µM | CCCCOCc1ccc(C(O)c2ccc(OC)cc2OC)cc1 (centres unmarked) [3j] |
| 0.2 µM | COc1ccc(C(O)c2cccc(COC3CCN(C(=O)OC(C)(C)C)CC3)c2)cc1OC (centres unmarked) [6b, Tert-butyl 4-((3-((3,4-dimethoxyphenyl)(hydroxy)methyl)benzyl)oxy)piperidine-1-carboxylate] |
| 2.62 µM | COc1ccc(C(O)c2ccc3cc(OC(C)C)ccc3c2)cc1OC (centres unmarked) [32d] |

| IC50 | Compound |
| --- | --- |
| 2.25 µM | COc1ccc(C(O)c2ccc3c(n2)C=CC(C)(C)O3)cc1OC (centres unmarked) [26d] |
| 3.1 µM | COc1ccc(C(O)c2cc3c(c(OC)c2)OC(C)(C)C=C3)cc1OC (centres unmarked) [26c] |
| 3.4 µM | COc1ccc(C(O)c2ccc(COC3CCOC3)cc2)cc1OC (centres unmarked) [3c] |
| > 5 µM | COc1ccc(C(O)c2ccc(CN3CCOCC3)cn2)cc1OC (centres unmarked) [21a] |
| > 5 µM | COc1ccc(C(O)c2ccc(OC(C)C)cn2)cc1OC (centres unmarked) [15c] |
| > 5 µM | COc1ccc(C(O)c2ccc(-c3ccccc3)cc2)cc1OC (centres unmarked) [24f] |
| > 5 µM | COc1ccc(C(O)c2ccc(OC)c(OC)c2)cc1OC [24b] |
| 0.68 µM | COc1ccc(C(O)c2ccc(COC3CCCCC3)cc2)c(OC)c1 (centres unmarked) [3h] |
| 0.48 µM | CCCCOCc1cccc(C(O)c2ccc(OC)cc2OC)c1 (centres unmarked) [6h] |
| 0.6 µM | COc1ccc(C(O)c2ccc3c(c2)C=CC(C)(C)O3)cc1OC (centres unmarked) [26a] |
| 0.4 µM | COc1ccc(C(O)c2ccc(COC3CCCCC3)cc2)cc1OC (centres unmarked) [3g] |
| > 5 µM | CCCCOc1ccc(C(O)c2ccc(OC)c(OC)c2)nc1 (centres unmarked) [15a] |
| 3.8 µM | CCCCOc1cccc(C(O)c2cccc(COCCC)c2)c1 (centres unmarked) [6k] |
| > 5 µM | OC(c1ccccc1)c1cccc(COc2cccc3ccccc23)c1 (centres unmarked) [6d] |
| 1 µM | CCCCOCc1cccc(C(O)c2ccc(OC)c(OCCCC)c2)c1 (centres unmarked) [6o] |
| 4.5 µM | COc1ccc(C(=O)c2ccc(COC3CCN(C(=O)OC(C)(C)C)CC3)cc2)cc1OC [36g] |
| > 5 µM | CCCCOCc1ccc(C(O)c2cccc(OCc3ccccc3)c2)cc1 (centres unmarked) [3q] |
| > 5 µM | CCOCc1ccc(C(O)c2ccc(OC)cc2)cc1 (centres unmarked) [3l] |
| > 5 µM | COc1ccc(C(O)c2ccc(CO[C@@H]3CCN(C(=O)OC(C)(C)C)C3)cc2)cc1OC (some centres unmarked) [3t] |
| 1.49 µM | COc1ccc(C(O)c2ccc(CN3CCN(C(=O)OC(C)(C)C)CC3)cc2)cc1OC (centres unmarked) [21b] |
| 3.33 µM | CCCCOc1ccc2cc(C(O)c3ccc(OC)c(OC)c3)ccc2c1 (centres unmarked) [32c] |
| 0.55 µM | COc1ccc(C(O)c2cccc(COC3CCN(C(=O)OC(C)(C)C)CC3)c2)c(OC)c1 (centres unmarked) [6c] |

| IC50 | Compound |
| --- | --- |
| 2.45 µM | CCCCOCc1cccc(C(O)c2ccc(OC)c(OC)c2)c1 (centres unmarked) [6j] |
| > 5 µM | CCOCc1cccc(C(O)c2ccc(OC)cc2)c1 (centres unmarked) [6f] |
| > 5 µM | COc1ccc(C(O)c2ccc(OCc3cnco3)cn2)cc1OC (centres unmarked) [14d] |
| 5 µM | CCCOCc1ccc(C(O)c2ccc(OC)c(OCCC)c2)cc1 (centres unmarked) [3v] |
| > 5 µM | CCCCOCc1cccc(C(O)c2cccc(OCCCC)c2)c1 (centres unmarked) [9d] |
| > 5 µM | COc1ccc(C(=O)c2ccc(C[C@H]3CCOC3)cc2)cc1OC [36c] |
| > 5 µM | COc1ccc(C(O)c2ccc(COC3CN(C(=O)OC(C)(C)C)C3)cc2)cc1OC (centres unmarked) [3s] |
| 1.03 µM | COc1ccc(C(O)c2ccc3sc(C)cc3c2)cc1OC (centres unmarked) [29e] |
| 0.27 µM | COc1cc(C(O)c2ccc(OCC3CCN(C(=O)OC(C)(C)C)CC3)cc2C)cc(OC)c1OC (centres unmarked) [35f] |
| 0.33 µM | COc1ccc(C(O)c2ccc(OCC3CCN(C(=O)OC(C)(C)C)CC3)cc2C)cc1OC (centres unmarked) [35d] |
| 0.43 µM | CCCCCOc1ccc(C(O)c2ccc(OC)c(OC)c2)c(C)c1 (centres unmarked) [35c] |
| > 5 µM | CCCCOCc1ccccc1C(O)c1ccc(OC)c(OCc2ccccc2)c1 (centres unmarked) [9b] |
| 1.3 µM | CCCCCOc1ccc(C(O)c2ccc(OC)c(OC)c2)c(F)c1 (centres unmarked) [35b] |
| 1.9 µM | CCCCCOc1ccc(C(O)c2ccc(OC)c(OC)c2)cc1 (centres unmarked) [14b] |
| > 5 µM | CCCOCc1ccccc1C(O)c1ccc(OC)c(OC)c1 (centres unmarked) [9a] |
| > 5 µM | CCCCOc1ccc(C(O)c2ccc(OC)cc2OC)nc1 (centres unmarked) [15b] |
| 0.27 µM | COc1cc(C(O)c2ccc(OCCC3CCN(C(=O)OC(C)(C)C)CC3)cc2C)cc(OC)c1OC (centres unmarked) [35g, Tert-butyl 4-(2-(4-(hydroxy(3,4,5-trimethoxyphenyl)methyl)-3-methylphenoxy)ethyl)piperidine-1-carboxylate] |
| 0.75 µM | CCCCOCc1cccc(C(O)c2ccc(OC)c(OCOC)c2)c1 (centres unmarked) [6n] |
| 5 µM | COc1ccc(C(O)c2ccc(C3CCCO3)cc2)cc1OC (centres unmarked) [24e] |
| 4.18 µM | COc1ccc(C(O)c2ccc3c(c2)OCCO3)cc1OC (centres unmarked) [29d] |
| 1.83 µM | COc1ccc(C(O)c2cccc(COc3cccc4ccccc34)c2)cc1OC (centres unmarked) [6e] |
| 4.2 µM | COc1ccc(C(O)c2cc3c(c(OC)c2)OC(C)(C)CC3)cc1OC (centres unmarked) [27c] |

| Compound | IC50 |
| --- | --- |
| CCCCOCc1ccc(C(O)c2ccc(OC)c(OC)c2)cc1 (centres unmarked) [3i, (4-(Butoxymethyl)phenyl)(3,4-dimethoxyphenyl)methanol] | 0.5 µM |
